In patent US20260242320A1, “USE OF CANNABIDIOL DERIVATIVE IN PREPARATION OF MEDICAMENT” (priority 2023, published 2026):
“Also recorded” adds a separate entry of the source.

Tests used:
BV-2 cellular viability = test: Cell viability / cytotoxicity by crystal violet staining; type: cell-based
Method: 100 μL of culture medium were transferred to a black 96-well plate for later use. Following removal of old culture medium, 100 μL of 4% paraformaldehyde was added for fixation. Fixation was performed for 5 minutes. Paraformaldehyde was then removed, and 100 μL of 0.05% crystal violet was added. The resultant mixture was incubated for 15 minutes, after which time crystal violet was removed and the mixture was slowly rinsed with water three times. Next, 150 μL of ethanol was added, and the mixture was incubated for 15 minutes. After incubation, the absorbance was measured at 540 nm using a spectrophotometer. Viability (%)=100× Fluorescence values of the dosing group/Fluorescence values of the blank group.
Cell viability was determined by crystal violet staining. Briefly, BV-2 cells were treated as indicated in the NO assay. The media was removed, and then 4% paraformaldehyde was added to fix the cells for 5 min. Cells were stained with 100 μL 0.05% crystal violet for 15 min and washed with water 2 times. Next, 150 μL of ethanol was added to each well, and the plate was incubated for 15 min at room temperature. Absorbance at 540 nm was measured using a SYNERGY H1 Microplate Reader.

LPS-activated BV-2 cells = test: Cell morphology determination; type: cell-based; settings: 10 μM, LPS 200 ng/ml, 24 h
Method: BV-2 cells were seeded at a density of 2.5×10^5 cells per milliliter in 6-well plates and incubated for 12 h. Cells were incubated with CIAC001 (10 μM) in the absence or presence of LPS (200 ng/ml) for 24 h. The images of BV-2 cells were taken with an inverted microscope (Ts2-FL, Nikon Corporation, Tokyo, Japan) and analyzed by ImageJ. Statistic data are counted in at least three hundred cells.

morphine-dependent mice = test: Naloxone-precipitated morphine withdrawal jumps; type: in vivo; settings: 2 μg/kg, 20 μg/kg, 0.2 mg/kg i.p., 0.2 mg/kg
Method: Mice were intraperitoneally injected with an escalating dose of morphine three times daily for 3 days (5, 20, and 40 mg/kg) to induce addiction. On the fourth day, mice were given morphine (40 mg/kg) or vehicle (5 mL/kg). […] The withdrawal was precipitated by naloxone. Each mouse was placed into a transparent plastic box immediately, and the number of jumps was recorded for 15 min.

morphine-treated mice = test: Morphine-induced behavioral sensitization; type: in vivo; settings: 0.2 mg/kg i.p.
Method: Mice were placed into the test chamber (40×40×40 cm^3) for 60 min to habituate the chamber for three consecutive days. […] Locomotor activity was recorded daily for 60 min after the administration of drugs. Next, all the mice were subjected to a 7-day withdrawal period (days 8-14). Subsequently, mice were given morphine (5 mg/kg, i.p.), and locomotor activity was recorded to determine behavioral sensitization.

[1] = Respiratory rate determination; type: in vivo, mice; settings: CIAC001 20 mg/kg i.p.; THC 10 mg/kg i.p.
Method: (§1) Mice were intraperitoneally injected with 20 mg/kg CIAC001 or 10 mg/kg THC once daily. After 1 h, the mice were anesthetized with isoflurane by a small animal anesthesia machine (R500IE, RWD Life Science Co) on day 2 and day 5. The respiratory rate of mice was recorded three times within 20 s. The weights of mice were recorded every day.

[2] = CPP assay for rewarding effect of CIAC001; type: in vivo, mice; settings: 20 mg/kg i.p.
Method: Conditional place conditioning (CPP) was conducted using the classic 10-consecutive-day procedure. On days 1 and 2, each mouse was separately placed into the CPP apparatus for 15 min to habituate the apparatus. On day 3 (preconditioning), the time spent in each compartment was recorded to determine any preference for the two compartments. […] During the conditioning phase, mice were separately isolated in the compartment for 30 min on 6 consecutive days. Mice were given morphine on days 4, 6, and 8, and vehicle (5 mL/kg) was administered on days 5, 7, and 9. The postconditioning phase was carried out 24 h after the last conditioning session. Each mouse was placed in the apparatus and explored freely, and the time spent in each compartment was recorded for 15 min. The CPP score(s) was calculated using the time spent in the drug-paired compartment minus the time spent in the vehicle-paired compartment.

[3] = Body weight during 7 days of administration; type: in vivo, mice; settings: during drug treatment vs vehicle
Method: as §1

PKM2 protein = PKM2 protein (Homo sapiens, UniProt P14618); test: Fluorescence titration of purified PKM2; type: binding; settings: PKM2 0.5 μM
Method: PKM2 protein (0.5 μM) was titrated with increasing concentrations of CIAC001, and the fluorescence intensity (λex 280 nm; λem 337 nm) was recorded by a fluorescence spectrophotometer (Cary Eclipse, Agilent Technologies Inc., USA). Appropriate controls were subtracted from the spectra obtained from the samples. The data were fitted by the nonlinear least squares method using Equation 8, derived from equations 1-7.
Because [LP2]^3 is far less than (LT+PT)×[LP2]^2, Equation 6 can be simplified as Equation 7, allowing derivation of Equation 8: […]
where F is the measured fluorescence; F0 is the initial fluorescence of PKM2 in the absence of CIAC001; FPL is an adjustable parameter for protein-ligand complex molar fluorescence; KD is the dissociation constant; LT is the total concentration of CIAC001; and PT is the total PKM2 concentration. The stoichiometry n was fitted according to the equation […].

Hif-1α = Hif-1α western blot in mPFC after chronic morphine; type: in vivo; settings: mice
From the text: ImageJ was used for densitometric analysis.

Tau, TrkB, Syn1, Aβ = test: Western blot of Alzheimer's disease markers in mouse hippocampus; type: in vivo; settings: transgene mice, 0, 0.2, 2, or 20 mg/kg
Method: The protein samples from the mouse hippocampus were analyzed for Tau5, p-Tau (T231), p-Tau (S202), p-Tau (S404), p-TrkB (Y705), Syn1, Aβ1-42, and Aβ1-16 protein content using Western blot technique.

[4] = Pharmacokinetic profiles in brain and plasma after oral administration; type: in vivo, mice; settings: male, BALB/c, mouse, 10 mg/kg p.o., read-out: B/P ratio

PKM2 protein, sequence (P14618 whole entry, species assumed): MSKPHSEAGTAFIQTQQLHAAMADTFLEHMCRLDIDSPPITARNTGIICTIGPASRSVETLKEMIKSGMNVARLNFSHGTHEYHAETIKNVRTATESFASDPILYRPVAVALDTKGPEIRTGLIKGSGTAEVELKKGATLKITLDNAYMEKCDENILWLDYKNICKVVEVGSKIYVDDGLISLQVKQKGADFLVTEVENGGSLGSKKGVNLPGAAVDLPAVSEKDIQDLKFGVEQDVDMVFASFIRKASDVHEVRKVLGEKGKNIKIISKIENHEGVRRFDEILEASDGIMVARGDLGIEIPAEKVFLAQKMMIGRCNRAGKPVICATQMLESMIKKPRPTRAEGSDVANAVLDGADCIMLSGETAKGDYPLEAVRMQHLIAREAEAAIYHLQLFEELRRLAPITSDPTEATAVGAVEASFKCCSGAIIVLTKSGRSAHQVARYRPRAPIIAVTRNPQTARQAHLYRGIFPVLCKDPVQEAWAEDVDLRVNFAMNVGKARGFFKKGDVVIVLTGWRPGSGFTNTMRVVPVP

## C=C(C)[C@@H]1CCC(C)=C[C@H]1c1c(O)cc(C(C)n2nccn2)cc1O (stereo partly drawn) [CIAC001, (1′R,2′R)-4-(1-(2H-1,2,3-Triazol-2-yl)ethyl)-5′-methyl-2′-(prop-1-en-2-yl)-1′,2′,3′,4′-tetrahydro-[1,1′-biphenyl]-2,6-diol]
BV-2 cellular viability; Mus musculus, BV-2 cells, read-out: Cellular toxicity (IC50 inhibiting BV-2 cellular viability)
  IC50: 57.8 ± 7.6 µM
BV-2 cellular viability; vs CBD
  fold less cytotoxicity compared to CBD: 6.8 fold
LPS-activated BV-2 cells
  LPS-induced morphological changes of microglia: considerably reversed
morphine-dependent mice
  naloxone-precipitated withdrawal jumps: dose-dependently attenuated; also recorded: ameliorated
morphine-treated mice; day 15
  locomotor response to morphine challenge (expression of behavioral sensitization): decreased the locomotor response
morphine-treated mice; mice
  development of morphine-induced behavioral sensitization (induction period): significantly inhibited; also recorded: ameliorated
[1]
  respiratory rate: did not affect the respiratory rate
[2]
  rewarding effect (CPP after 6 consecutive days of training): did not show any effect on CPP
[3]
  body weights: did not change
PKM2 protein
  stoichiometry of CIAC001-PKM2 interaction: 0.54±0.07
PKM2 protein; intrinsic fluorescence quenching, read-out: dissociation constant KD
  Kd: 2.2 ± 0.2 µM
Hif-1α
  chronic morphine-induced Hif-1α overexpression in mPFC: inhibit chronic morphine-induced Hif-1α overexpression
Tau, TrkB, Syn1, Aβ
  Syn1 and Aβ levels: reduces Syn1 and Aβ levels
  Tau and TrkB phosphorylation: inhibits Tau and TrkB phosphorylation
[4]; 0.083 h
  Kp at 0.083 h: 2.07 ± 0.907
[4]; 0.25 h
  Kp at 0.25 h: 2.78 ± 0.389
